By inhibition is commonly meant the relative decrease from the control value, in per cent.

The values below come from patent US4749710A, “Immunosuppressive agents” (priority 1985, dated 1988).

The test system of this data set is human cytotoxic T-lymphocyte responses. In words: Inhibition of human CTL responses (mixed leukocyte-tumor cultures, HT-144 melanoma, ^51 Cr release). The note with it: for inhibition at 10 µM / inhibition at 1 µM / inhibition at 0.1 µM: Homo sapiens, T-lymphocyte, read-out: Inhibition of CTL activity (%); for inhibition at 10 µM / inhibition at 1 µM / inhibition at 0.1 µM / CTL activity (% specific ^51 Cr release): 0.1% ethanol. It counts as cell-based. The method, boiled down:
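Effector CTLs came from 6-day mixed leukocyte–tumor cultures of donor PBMC with irradiated stimulator cells plus 1×10^-5 M hydrocortisone. Effectors were added to adhered ^51Cr-labelled target cells overnight at 37 °C; specific ^51Cr release gave percent inhibition, mean±SEM of triplicates.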

The mark [1] stands for this setting: Test 1, donor I, 1 × 10^-5 molar, effector to target 6:1.
[2] abbreviates: Test 1, donor I, 1 × 10^-6 molar, effector to target 6:1.
[3] abbreviates: Test 2, donor II, 1 × 10^-6 molar, effector to target 6:1.
Where [4] appears, read: Test 2, donor II, 1 × 10^-7 molar, effector to target 6:1.
Where [5] appears, read: Test 1, donor I, 1 × 10^-7 molar, effector to target 6:1.
Where [6] appears, read: Test 2, donor III, 1 × 10^-6 molar, effector to target 32:1.
Setting [7] is: Test 2, donor III, 1 × 10^-7 molar, effector to target 32:1.
Setting [8] is: Test 3, donor IV, 1 × 10^-6 molar, effector to target 24:1.
Where [9] appears, read: Test 3, donor IV, 1 × 10^-7 molar, effector to target 24:1.

Like-named read-outs stand apart in the source and are kept apart here.

Turning to `C=C1/C(=C\C=C2/CCC[C@]3(C)[C@@H]([C@H](C)C[C@H](O)CC(C)(C)O)CC[C@@H]23)C[C@@H](O)C[C@@H]1O` [1α,23S,25-(OH)3 --D3, 1α,23S,25-Trihydroxycholecalciferol], under setting [1], the inhibition at 10 µM was 95% and the “CTL activity (% specific ^51 Cr release)” value turned out to be 2 ± 3 % specific ^51 Cr release. Under setting [2], the inhibition at 1 µM was determined as 72% and the “CTL activity (% specific ^51 Cr release)” value was 12 ± 3 % specific ^51 Cr release. Besides, under setting [3], the inhibition at 1 µM turned out to be 62% and the “CTL activity (% specific ^51 Cr release)” value stood at 14 ± 7 % specific ^51 Cr release. Under setting [4], the inhibition at 0.1 µM was determined as 73% and the “CTL activity (% specific ^51 Cr release)” value is 10 ± 2 % specific ^51 Cr release. Under “Table IV”, the “suppression of generation of human cytotoxic T-lymphocytes (in words)” value is given as “suppressed the generation of human cytotoxic T-lymphocytes”.

Consider `C=C1/C(=C\C=C2/CCC[C@]3(C)[C@@H]([C@H](C)/C=C/[C@H](C)[C@](C)(O)CO)CC[C@@H]23)C[C@@H](O)C[C@@H]1O` [1α,25S,26-(OH)3 --D2, 1α,25S,26-Trihydroxyergocalciferol], for which the inhibition at 1 µM was determined as 54% under setting [2], 100% under setting [6] and 82% under setting [8]. The inhibition at 0.1 µM runs as follows: under setting [5], 76%; under setting [7], 87%; under setting [9], 40%. For the same molecule, the “CTL activity (% specific ^51 Cr release)” value under setting [2] came to 17 ± 4 % specific ^51 Cr release; the “CTL activity (% specific ^51 Cr release)” value under setting [5] was found to be 9 ± 2 % specific ^51 Cr release; the “CTL activity (% specific ^51 Cr release)” value under setting [6] is given as -4 ± 2 % specific ^51 Cr release; the “CTL activity (% specific ^51 Cr release)” value under setting [7] was 7 ± 2 % specific ^51 Cr release; the “CTL activity (% specific ^51 Cr release)” value under setting [8] was 10 ± 2 % specific ^51 Cr release; the “CTL activity (% specific ^51 Cr release)” value under setting [9] was determined as 34 ± 10 % specific ^51 Cr release.

`C=C1/C(=C\C=C2/CCC[C@]3(C)[C@@H]([C@H](C)C=CC[C@](C)(O)CO)CC[C@@H]23)C[C@@H](O)C[C@@H]1O` [1α,25S,26-(OH)3 --Δ^22 -D3, 1α,25S,26-Trihydroxy-Δ^22-cholecalciferol]: the inhibition at 10 µM under setting [1] was 63%. Moreover, the inhibition at 1 µM was 70% under setting [2] and 49% under setting [3]. For the same molecule, the inhibition at 0.1 µM under setting [4] turned out to be 97%. Further, the “CTL activity (% specific ^51 Cr release)” value was determined as 16 ± 4 % specific ^51 Cr release under setting [1], 13 ± 8 % specific ^51 Cr release under setting [2], 19 ± 4 % specific ^51 Cr release under setting [3] and 1 ± 4 % specific ^51 Cr release under setting [4].
